This is an account of results in PubChem BioAssay AID651650 (Sanford-Burnham Center for Chemical Genomics, 2012).

The test has as its target Neuropilin-1 (Homo sapiens) (UniProt O14786). Kind of test: NRP-1 b1b2 CendR peptide binding inhibitors, dose response, biochemical, FP and AlphaScreen panel (AID 651650). The following applies: NRP-1 b1b2 / RPARPAR peptide binding, FP or AlphaScreen.
Setting [1] is: AlphaScreen, run 1, individual panel run IC50.
Setting [2] is: FP, run 1, individual panel run IC50.
Where [3] appears, read: FP, run 2, individual panel run IC50.

Calls of active or inactive are those of the source.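 Rule for the calls: active = mean IC50 below 20 µM in each of the two panels, so potent in both; inactive = the rest.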

Sequence of Neuropilin-1 (Homo sapiens) (O14786 whole entry, looked up): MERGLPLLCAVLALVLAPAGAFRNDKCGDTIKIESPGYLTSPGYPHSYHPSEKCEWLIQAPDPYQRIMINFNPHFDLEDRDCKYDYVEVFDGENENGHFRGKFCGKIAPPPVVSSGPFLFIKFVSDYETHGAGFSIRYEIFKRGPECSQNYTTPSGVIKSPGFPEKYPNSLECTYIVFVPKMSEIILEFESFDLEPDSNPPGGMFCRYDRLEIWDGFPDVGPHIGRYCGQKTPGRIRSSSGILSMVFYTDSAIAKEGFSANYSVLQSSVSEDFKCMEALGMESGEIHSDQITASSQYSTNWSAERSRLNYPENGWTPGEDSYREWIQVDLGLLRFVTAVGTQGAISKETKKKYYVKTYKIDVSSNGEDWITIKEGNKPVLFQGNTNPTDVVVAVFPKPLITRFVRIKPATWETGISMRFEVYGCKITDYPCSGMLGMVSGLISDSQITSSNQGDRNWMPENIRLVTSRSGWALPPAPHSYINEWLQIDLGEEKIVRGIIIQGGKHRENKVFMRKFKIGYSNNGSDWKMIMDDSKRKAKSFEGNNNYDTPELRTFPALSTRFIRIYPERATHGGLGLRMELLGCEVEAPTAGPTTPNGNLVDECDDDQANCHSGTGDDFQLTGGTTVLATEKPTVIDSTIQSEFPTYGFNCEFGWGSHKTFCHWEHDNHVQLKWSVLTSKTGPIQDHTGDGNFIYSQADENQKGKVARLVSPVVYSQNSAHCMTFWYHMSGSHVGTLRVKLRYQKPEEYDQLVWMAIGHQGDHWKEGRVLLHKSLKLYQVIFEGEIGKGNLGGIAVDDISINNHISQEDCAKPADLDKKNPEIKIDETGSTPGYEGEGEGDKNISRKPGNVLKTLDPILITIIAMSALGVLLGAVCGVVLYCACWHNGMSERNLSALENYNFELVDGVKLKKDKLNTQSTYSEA

As to `CCc1cc(C(=O)OC)c(NC(=O)c2ccoc2C)s1`, the IC50 is, setting by setting: (AlphaScreen, mean of runs) > 100 µM (inactive); under setting [1], > 100 µM; (FP, mean of runs) > 95 µM (inactive); under setting [2], > 95 µM; under setting [3], > 95 µM.

Regarding `O=C(NCCCN1CCOCC1)c1ccc2c(=O)n(-c3ccc(F)c(Cl)c3)c(=S)[nH]c2c1`, the IC50 (AlphaScreen, mean of runs) was > 100 µM (inactive); the IC50 under setting [1] was > 100 µM; the IC50 (FP, mean of runs) is > 95 µM (inactive); the IC50 under setting [2] is > 95 µM; the IC50 under setting [3] is > 95 µM.

Turning to `C[C@@H](NC(=O)c1nc[nH]c1C(=O)NCc1ccccc1)c1ccccc1`, the IC50 by setting is: (AlphaScreen, mean of runs) > 100 µM (inactive); under setting [1], > 100 µM; (FP, mean of runs) > 95 µM (inactive); under setting [2], > 95 µM; under setting [3], > 95 µM.

`CCN1C(=O)C(=O)c2cc(C)ccc21`: the IC50 is > 100 µM (inactive) (AlphaScreen, mean of runs); > 100 µM under setting [1]; > 95 µM (inactive) (FP, mean of runs); > 95 µM under setting [2]; > 95 µM under setting [3].

`CC(=O)Oc1cc2c(c3ccccc13)CCC2=O`: the IC50 is, setting by setting: (AlphaScreen, mean of runs) > 100 µM (inactive); under setting [1], > 100 µM; (FP, mean of runs) > 95 µM (inactive); under setting [2], > 95 µM; under setting [3], > 95 µM.

As for `CCCS(=O)(=O)N1CCC(C(=O)NC2CCCC(C)C2C)CC1` (stereo not given), the IC50 is, setting by setting: (AlphaScreen, mean of runs) 17.5 µM; under setting [1], 17.5 µM; (FP, mean of runs) > 95 µM (inactive); under setting [2], > 95 µM; under setting [3], > 95 µM.

For the compound `CC(=O)Nc1ccc(NC(=O)C2CC(=O)N(c3ccc(Cl)cc3)C2)cc1` (stereo not given), the IC50 is, setting by setting: (AlphaScreen, mean of runs) 17.9 µM; under setting [1], 17.9 µM; (FP, mean of runs) > 95 µM (inactive); under setting [2], > 95 µM; under setting [3], > 95 µM.

On to `COc1cc(C(=O)Nc2cc3c(cc2N2CCCCC2)n(C)c(=O)n3C)cc(OC)c1OC`, for which the IC50 entry (AlphaScreen, mean of runs) was “inactive”. Moreover, the IC50 by setting is: under setting [1], 85 µM; (FP, mean of runs) > 95 µM (inactive); under setting [2], > 95 µM; under setting [3], > 95 µM.

In the case of `CN1C[C@H](CO)C=C2c3cccc4[nH]cc(c34)C[C@H]21`, the IC50 by setting is: (AlphaScreen, mean of runs) 14.4 µM; under setting [1], 14.4 µM; (FP, mean of runs) > 95 µM (inactive); under setting [2], > 95 µM; under setting [3], > 95 µM.

In the case of `Cc1ccc(-n2c(-c3ccco3)nc3c(cnn3-c3ccc(C)cc3)c2=O)cc1`, the IC50 runs as follows: (AlphaScreen, mean of runs) > 100 µM (inactive); under setting [1], > 100 µM; under setting [2], 39.7 µM; under setting [3], 36.3 µM. For the same compound, the IC50 result (FP, mean of runs) is “inactive”.

Turning to `O=C(CSc1nnc(Cc2ccccc2)n1Cc1ccccc1)NCc1ccco1`, the IC50 is > 100 µM (inactive) (AlphaScreen, mean of runs); > 100 µM under setting [1]; > 95 µM (inactive) (FP, mean of runs); > 95 µM under setting [2]; > 95 µM under setting [3].

With `CCOC(=O)c1ccc2[nH]c(C)c(C)c2c1`, the IC50 is, setting by setting: (AlphaScreen, mean of runs) > 100 µM (inactive); under setting [1], > 100 µM; (FP, mean of runs) > 95 µM (inactive); under setting [2], > 95 µM; under setting [3], > 95 µM.

In the case of `CCOC(=O)CNc1ccc2c(c1)OCO2`, the IC50 result (AlphaScreen, mean of runs) is “inactive” and the IC50 result (FP, mean of runs) is “inactive”. Moreover, the IC50 reads like this: under setting [1], 27.8 µM; under setting [2], > 95 µM; under setting [3], 38.7 µM.

On to `O=C(COc1ccc(Br)cc1CO)Nc1ccc(F)cc1`, for which the IC50 runs as follows: (AlphaScreen, mean of runs) > 100 µM (inactive); under setting [1], > 100 µM; (FP, mean of runs) > 95 µM (inactive); under setting [2], > 95 µM; under setting [3], > 95 µM.

Regarding `Nc1ncnc2[nH]c(=S)[nH]c12`, the IC50 (AlphaScreen, mean of runs) was > 100 µM (inactive); the IC50 under setting [1] is > 100 µM; the IC50 (FP, mean of runs) was > 95 µM (inactive); the IC50 under setting [2] was > 95 µM; the IC50 under setting [3] was > 95 µM.

`Cc1nc(Nc2ccc(S(N)(=O)=O)cc2)oc1C`: the IC50 result (AlphaScreen, mean of runs) is “inactive”. Besides, the IC50 is, setting by setting: under setting [1], 73.1 µM; (FP, mean of runs) > 95 µM (inactive); under setting [2], > 95 µM; under setting [3], > 95 µM.

Take `C=CCNC(=O)c1onc(CSc2ccc(F)c(F)c2)c1C(=O)NCC=C`: the IC50 was > 100 µM (inactive) (AlphaScreen, mean of runs); > 100 µM under setting [1]; > 95 µM (inactive) (FP, mean of runs); > 95 µM under setting [2]; > 95 µM under setting [3].

As to `CCn1c(=O)c(C(=O)NCCNCCO)c(O)c2ccccc21`, the IC50 is > 100 µM (inactive) (AlphaScreen, mean of runs); > 100 µM under setting [1]; > 95 µM (inactive) (FP, mean of runs); > 95 µM under setting [2]; > 95 µM under setting [3].

Consider `CCCCn1nnnc1C(c1cc2ccccc2o1)N(C)Cc1ccc(Cl)c(Cl)c1` (stereo not given), for which the IC50 is 12.7 µM (AlphaScreen, mean of runs); 12.7 µM under setting [1]; > 95 µM (inactive) (FP, mean of runs); > 95 µM under setting [2]; > 95 µM under setting [3].

On to `CC(=O)C(=Cc1ccc(Cl)cc1)C(=O)c1ccccc1`, for which the IC50 runs as follows: (AlphaScreen, mean of runs) > 100 µM (inactive); under setting [1], > 100 µM; (FP, mean of runs) > 95 µM (inactive); under setting [2], > 95 µM; under setting [3], > 95 µM.

`CCCCN(c1ccccc1)S(=O)(=O)c1ccc2c(c1)CCN2C(=O)CCC(=O)O`: the IC50 (AlphaScreen, mean of runs) was > 100 µM (inactive); the IC50 under setting [1] was > 100 µM; the IC50 (FP, mean of runs) was > 95 µM (inactive); the IC50 under setting [2] was > 95 µM; the IC50 under setting [3] was > 95 µM.

On to `O=C(Nc1cccc2c1CCCC2)c1cc(C2CCCCN2C(=O)CCCc2ccccc2)on1` (stereo not given), for which the IC50 by setting is: (AlphaScreen, mean of runs) > 100 µM (inactive); under setting [1], > 100 µM; (FP, mean of runs) > 95 µM (inactive); under setting [2], > 95 µM; under setting [3], > 95 µM.

`COc1cc(Cn2nnc3ccccc32)cc(Br)c1O`: the IC50 reads like this: (AlphaScreen, mean of runs) > 100 µM (inactive); under setting [1], > 100 µM; (FP, mean of runs) > 95 µM (inactive); under setting [2], > 95 µM; under setting [3], > 95 µM.

Regarding `Cc1ccc(NNS(=O)(=O)c2ccc(C)cc2)cc1`, the IC50 runs as follows: (AlphaScreen, mean of runs) > 100 µM (inactive); under setting [1], > 100 µM; (FP, mean of runs) > 95 µM (inactive); under setting [2], > 95 µM; under setting [3], > 95 µM.

As to `CC(=O)Nc1cccc(-c2csc(NCc3ccccc3)n2)c1`, the IC50 was > 100 µM (inactive) (AlphaScreen, mean of runs); > 100 µM under setting [1]; > 95 µM (inactive) (FP, mean of runs); > 95 µM under setting [2]; > 95 µM under setting [3].

For the compound `O=C(Cn1cccc1C(=O)c1ccccc1)NCCC1=CCCCC1`, the IC50 (AlphaScreen, mean of runs) is 7.12 µM; the IC50 under setting [1] stood at 7.12 µM; the IC50 (FP, mean of runs) was > 95 µM (inactive); the IC50 under setting [2] was > 95 µM; the IC50 under setting [3] was > 95 µM.

For the compound `CN(C(=O)COC(=O)c1nc(-c2ccccc2)n(-c2ccccc2)n1)C1CCS(=O)(=O)C1` (stereo not given), the IC50 is, setting by setting: (AlphaScreen, mean of runs) > 100 µM (inactive); under setting [1], > 100 µM; (FP, mean of runs) > 95 µM (inactive); under setting [2], > 95 µM; under setting [3], > 95 µM.

`CCC1C2Cc3ccc(O)cc3C1(CC)CCN2C` (stereo not given): the IC50 is > 100 µM (inactive) (AlphaScreen, mean of runs); > 100 µM under setting [1]; > 95 µM (inactive) (FP, mean of runs); > 95 µM under setting [2]; > 95 µM under setting [3].

On to `CCOC(=O)C(NC(=O)CC(C)C)(Nc1sc(C)c(CC)c1C#N)C(F)(F)F` (stereo not given), for which the IC50 (AlphaScreen, mean of runs) was > 100 µM (inactive); the IC50 under setting [1] is > 100 µM; the IC50 (FP, mean of runs) is > 95 µM (inactive); the IC50 under setting [2] was > 95 µM; the IC50 under setting [3] was > 95 µM.

`COc1ccc(N=C2C(=Nc3ccc(OC)cc3)N(c3ccc(N(C)C)cc3)C(=S)N2c2ccc(OC)cc2)cc1`: the IC50 is > 100 µM (inactive) (AlphaScreen, mean of runs); > 100 µM under setting [1]; > 95 µM (inactive) (FP, mean of runs); > 95 µM under setting [2]; > 95 µM under setting [3].

Regarding `COc1ccc2c(c1OC)CN1CCc3cc4c(cc3[C@@H]1[C@@H]2O)OCO4`, the IC50 was > 100 µM (inactive) (AlphaScreen, mean of runs); > 100 µM under setting [1]; > 95 µM (inactive) (FP, mean of runs); > 95 µM under setting [2]; > 95 µM under setting [3].

On to `O=C(c1ccc(-c2cccc(Cl)c2)o1)N1CCN(c2ccc([N+](=O)[O-])cc2)CC1`, for which the IC50 (AlphaScreen, mean of runs) is > 100 µM (inactive); the IC50 under setting [1] is > 100 µM; the IC50 under setting [2] was > 95 µM; the half-maximal inhibitory concentration (IC50) under setting [3] was determined as 39.5 µM. Further, the IC50 entry (FP, mean of runs) is “inactive”.

For `CC#CCN(Cc1ccco1)C(=O)C1CCC(=O)N(Cc2ccccc2F)C1` (stereo not given), the IC50 was > 100 µM (inactive) (AlphaScreen, mean of runs); > 100 µM under setting [1]; > 95 µM (inactive) (FP, mean of runs); > 95 µM under setting [2]; > 95 µM under setting [3].

Regarding `COc1ccc(NC(=O)CN(C)CC(=O)Nc2cccc(F)c2)cc1Cl`, the IC50 result (AlphaScreen, mean of runs) was “inactive”. Further, the IC50 is 35.5 µM under setting [1]; > 95 µM (inactive) (FP, mean of runs); > 95 µM under setting [2]; > 95 µM under setting [3].

On to `Cc1nc(SCc2ccc(C(=O)O)cc2)nc2c1CCCC2`, for which the IC50 was > 100 µM (inactive) (AlphaScreen, mean of runs); > 100 µM under setting [1]; > 95 µM (inactive) (FP, mean of runs); > 95 µM under setting [2]; > 95 µM under setting [3].

A word on the IC50: it is the point on the concentration scale where inhibition reaches its midpoint.
